Reference: patent publication US6410791B1, “Nitric esters and nitrate salts of specific drugs” (priority 1998, dated 2002)
Structures can show the parent of a compound that is named as a salt.

Key:
tracheal secretion = test: Mucolitic activity: phenol red in the tracheal secretion; type: in vivo; conditions: male mice, 264 micromoles/Kg i.p. ten minutes before phenol red 500 mg/Kg i.p.; % variation of absorbance versus control group = 100%
Experimental: Mucolitic activity in male mice was evaluated according to the Method of Engler and Zselenyi, J. Pharm. Methods 11, 151, 1984. By this method it is determined the quantity of phenol red in the tracheal secretion. The animals were previously administered i.p. at a dose of 500 mg/Kg with the dye dissolved in physiologic solution. 3 groups of mice (weight 18±2 g), of 10 animal each, were treated i.p. with the dye. One group was the control group. Each of the two treated groups received, ten minutes before the above injection, an i.p. injection of 264 micromoles/Kg of Ambroxol nitrate or Ambroxol hydrochloride, respectively. 30 minutes after the phenol red injection, the animals were sacrificed. The trachea was freed from the surrounding tissues, dissected and washed for 30 minutes in 3 ml of physiologic solution. 0.1 ml of 1 M sodium hydroxide were then added to the physiologic solution. The washings were centrifuged for 15 minutes at 3000 rpm. A spectrophotometric assay was performed on the supernatant in order to determine the concentration of phenol red in the physiologic solution. Mucolitic activity was determined as % variation of absorbance of the sample in the confront of that of the control group, assumed to be 100%.

histamine = test: Antihistaminic activity: experimental bronchoconstriction after i.v. histamine; type: in vivo; conditions: guinea pig, histamine 2 μg/Kg i.v., compound endovenously, percent values with respect to the control (vehicle = 100)
[1] = test system: cough stroke caused by the aerosol (citric acid); test: Anti-tussive activity: cough strokes caused by citric acid aerosol; type: in vivo, Guinea pigs; conditions: guinea pig, citric acid 7.5% aerosol, 110 micromoles/Kg i.p., 30 minutes after injection, counted for 10 minutes; control group = 100%
Experimental: Guinea pigs (weight 430+20) were treated as described by Braga et Al. Arzneim. Forsch./Drug Res. 43, 550, 1993.
In this pharmacological experiment 5 groups of 8 animals each were formed. One group was not treated and was the control group.
Each animal was placed in a cylindrical glass container having one tubing through each of the two circular flat surfaces. Said tubing were, respectively, for the aerosol inlet and outlet. The outlet tubing is connected to a polygraphic system.
The aerosol was formed from a solution 7.5% by weight of citric acid in water.
The air variation inside the glass container was registered before and after a cough stroke caused by the aerosol. One hour later Dextromethorphan hydrochloride, Dextromethorphan nitrate, Dextrorphan hydrochloride and dextrorphan nitrate were i.p. administered in a physiologic solution at a dose of 110 micromoles/Kg. 30 minutes after the injection the animals were treated with the aerosol. It was then registered the number of cough strokes for a time of 10 minutes. In the following Table III are reported the average response obtained from each treated group, referred to that of the control group, made 100%.

heart frequency = test: Heart frequency (tachycardia) by electrocardiographic device during the capsaicin bronchoconstriction test; type: in vivo; conditions: guinea pig, 0.3 nmoles/min i.v. infusion for 15 minutes; percent values with respect to the control (carrier = 100; vehicle 188±7 beats per minute)
Experimental: (§1) Each groups consisted of eight animals. […] For a total 15 minutes, starting from 5 minutes before capsaicin injection to 10 minutes after) Salbutamol (0.3 nmoles/min), or the corresponding nitrate salt (0.3 nmoles/min) or only the carrier were administered by intravenous infusion were administered to each group.
The heart frequency was determined by an electrocardiographic device, according to the usual methods.

[2] = test system: bronchoconstrictive response induced by capsaicin; test: Experimental bronchoconstriction induced by capsaicin (tidal air variation, Konzett apparatus); type: in vivo; conditions: guinea pig, capsaicin 1 μg/Kg i.v., 0.3 nmoles/min i.v. infusion for 15 minutes; percent values with respect to the control (carrier = 100)
Experimental: as §1
The heart frequency was determined by an electrocardiographic device, according to the usual methods. The average value of the heart frequency following administration of the vehicle was of 188±7 beats per minute.

## Nc1c(Br)cc(Br)cc1CN[C@H]1CC[C@H](O)CC1 [Ambroxol hydrochloride]
Tracheal secretion
  Mucolitic activity (%): 30%

## Nc1c(Br)cc(Br)cc1CNC1CCC(O)CC1 (stereo not drawn) [Ambroxol nitrate]
Tracheal secretion
  Mucolitic activity (%): 0%

## O=C(O)COCCN1CCN(C(c2ccccc2)c2ccc(Cl)cc2)CC1 (stereo not drawn) [Cetirizine hydrochloride]
histamine; hydrochloride
  Broncocostriction (%): 40%

## O=C(O)COCCN1CCN(C(c2ccccc2)c2ccc(Cl)cc2)CC1 (stereo not drawn) [Cetirizine nitrate]
histamine
  Broncocostriction (%): 0%

## COc1ccc2c(c1)[C@]13CCCC[C@@H]1[C@H](C2)N(C)CC3 [Dextromethorphan hydrochloride]
[1]
  cough strokes (%): 30%

## COc1ccc2c(c1)[C@@]13CCCC[C@H]1[C@@H](C2)N(C)CC3 [Dextromethorphan nitrate]
[1]
  cough strokes (%): 0%

## CN1CC[C@@]23CCCC[C@@H]2[C@@H]1Cc1ccc(O)cc13 [Dextrorphan hydrochloride]
[1]
  cough strokes (%): 40%

## CN1CC[C@]23CCCC[C@H]2[C@H]1Cc1ccc(O)cc13 [Dextrorphan nitrate]
[1]
  cough strokes (%): 0%

## CC(C)(C)NCC(O)c1ccc(O)c(CO)c1 (stereo not drawn) [Salbutamol.HNO3, Salbutamol nitrate]
Heart frequency
  Tachycardia (%): 97%
[2]
  Bronchoconstriction (%): 0%

## CC(C)(C)NCC(O)c1ccc(O)c(CO)c1 (stereo not drawn) [Salbutamol]
Heart frequency
  Tachycardia (%): 116%
[2]
  Bronchoconstriction (%): 0%
